Data reported in patent publication US10721937B1, “Preservative systems and compositions and methods incorporating same” (CODEX BEAUTY CORPORATION, priority 2019, dated 2020).

Test system: skin of human volunteers
Assay: Human Repeat Insult Patch Test (HRIPT), skin irritation and sensitization
Format: in vivo
Details: positive control, study of Example 28, 51 subjects completing
From the text: Prior to utilizing in-vivo efficacy testing, however, it must first be determined that application of the product onto the skin of human volunteers will not cause them to experience an allergic reaction or some form of painful irritation. This is done by performing what is known as a Human Repeat Insult Patch Test (HRIPT). This is an internationally recognized test used to determine the potential for irritation, sensitization, and allergic reaction potential of a product. In view of the growing number of exotic ingredients used in skin care formulations, coupled with the increasingly complex and sophisticated chemical composition of the formulas, the risk of individuals experiencing irritation and allergic reactions because of their use has increased substantially. […] Any allergic reactions experienced by the test subject will be observed, recorded, and evaluated by a dermatologist to confirm, or not, the safety of the product. […]
Each HRIPT included about 50 subjects. In addition to demographic data collected for each subject, a Fitzpatrick Skin Type was also determined. […]
This procedure was repeated until a series of 9 consecutive, 24-hour exposures had been made 3 times a week for three 3 consecutive weeks. Prior to each reapplication, the test sites evaluated by trained laboratory personnel. […]

CCCCCCCCCCCCOS(=O)(=O)[O-].[Na+] [2.0% Sodium Lauryl Sulfate Solution, Sodium Lauryl Sulfate]
number of subjects with a Grade 1 reaction in HRIPT: 4 subjects | number of subjects with a Grade 3 reaction in HRIPT: one
